Assay [1] addresses T1, SARS-CoV-2 PLpro (nsp3 1564–1878) (Severe acute respiratory syndrome coronavirus 2, UniProt P0DTD1). As to the kind of experiment: biochemical. The conditions noted are these: read-out: % of control remaining. The arrangement: FRET-quenched peptide (Pro3) cleavage by PLpro, 10 min pre-incubation, slope over 20 min, normalised to no-compound control.
The target in assay [2] is T1, SARS-CoV-2 PLpro (nsp3 1564–1878). As to the kind of experiment: biochemical. Details: FRET-quenched peptide (Pro3) cleavage by PLpro, 10 min pre-incubation, slope over 20 min, normalised to no-compound control. The conditions noted are these: read-out: % of control remaining. This is another data set of the same source.

Where a name gives a salt, the structure may show the parent alone. Read-outs that look alike come from different tables or passages of the source. *1 amine or outer side, *2 acyl side, *3 side chain or, on linkers, in order; H or OH if unused. Where a SMILES comes first, the peptide text is derived from it. Bridges are numbered along the chain shown (N, C = ends). Roman numbers before positions name the chains, in order. [ ]: non-standard residue; d: D form. Actinocin(9to1) = Cc1c2oc3c(C)ccc(C(=O)[*:1])c3nc-2c(C(=O)[*:2])c(N)c1=O; NMeV = CN[C@H](C(=O)O)C(C)C; Sar = CNCC(=O)O

Regarding `CC[C@@]1(O)C[C@H](O[C@H]2C[C@H](N(C)C)[C@H](O[C@H]3C[C@H](O)[C@H](O[C@H]4CCC(=O)[C@H](C)O4)[C@H](C)O3)[C@H](C)O2)c2c(cc3c(c2O)C(=O)c2c(O)cccc2C3=O)[C@H]1C(=O)OC` [Aclarubicin], the remaining activity at 3.75 µM in assay [1] (Well no.=1573, high concentration screen) worked out at 96.4%. Besides, the remaining activity at 1.25 µM in assay [2] (Well no.=1573, low concentration screen) was 101%.
On to `O=C(O[C@H]1C[N+]2(CCCOc3ccccc3)CCC1CC2)C(O)(c1cccs1)c1cccs1` [Aclidinium (Bromide)], for which the remaining activity at 3.75 µM in assay [1] (Well no.=7336, high concentration screen) stood at 101%. Besides, the remaining activity at 1.25 µM in assay [2] (Well no.=7336, low concentration screen) came out at 98%.
Turning to `O=C(O[C@H]1C[N+]2(CCCOc3ccccc3)CCC1CC2)C(O)(c1cccs1)c1cccs1` [Aclidinium Bromide], the remaining activity at 3.75 µM in assay [1] (Well no.=5358, high concentration screen) was found to be 97.4%. The remaining activity at 1.25 µM in assay [2] (Well no.=5358, low concentration screen) turned out to be 100%.
Take `CCN1C[C@]2(COC)[C@H](O)C[C@H](OC)[C@@]34[C@@H]5C[C@@]6(O)[C@H](OC(=O)c7ccccc7)[C@@H]5[C@@](OC(C)=O)([C@@H]([C@H](OC)[C@H]23)[C@@H]14)[C@@H](O)[C@@H]6OC` [Aconitine]: in assay [1], the remaining activity at 3.75 µM worked out at 98.5%. In addition, the remaining activity at 1.25 µM in assay [2] was found to be 96%.
Regarding `CC(=O)Nc1ccc(CC(=O)O)cc1` [Actarit], the remaining activity at 3.75 µM in assay [1] (Well no.=1907, high concentration screen) was 95.2%. Also, the remaining activity at 1.25 µM in assay [2] (Well no.=1907, low concentration screen) worked out at 96.1%.
For `Cc1c2oc3c(C)ccc(C(=O)N[C@@H]4C(=O)N[C@H](C(C)C)C(=O)N5CCC[C@H]5C(=O)N(C)CC(=O)N(C)[C@@H](C(C)C)C(=O)O[C@@H]4C)c3nc-2c(C(=O)N[C@@H]2C(=O)N[C@H](C(C)C)C(=O)N3CCC[C@H]3C(=O)N(C)CC(=O)N(C)[C@@H](C(C)C)C(=O)O[C@@H]2C)c(N)c1=O` [Actinomycin D] (I: T[dV]P[Sar][NMeV] / II: T[dV]P[Sar][NMeV]; ester I:1-I:C, II:1-II:C; linker I:N-II:N via Actinocin(9to1)), the remaining activity at 3.75 µM in assay [1] (Well no.=3075, high concentration screen) was 103%. Moreover, in assay [2] (Well no.=3075, low concentration screen), the remaining activity at 1.25 µM came to 103%.
Regarding `CCCCC[C@H](CC(=O)NO)C(=O)N[C@H](C(=O)N1CCC[C@H]1CO)C(C)C` [Actinonin], the remaining activity at 3.75 µM in assay [1] (Well no.=21, high concentration screen) was determined as 97.8%. The remaining activity at 1.25 µM in assay [2] (Well no.=21, low concentration screen) is 97.8%.
Turning to `Nc1nc2c(ncn2COCCO)c(=O)[nH]1` [Acycloguanosine], the remaining activity at 3.75 µM in assay [1] (Well no.=2073, high concentration screen) is 106%. Also, in assay [2] (Well no.=2073, low concentration screen), the remaining activity at 1.25 µM amounted to 103%.
Regarding `Nc1nc2c(ncn2COCCO)c(=O)[nH]1` [Acyclovir], the remaining activity at 3.75 µM stood at 103% in assay [1] (Well no.=159, high concentration screen) and 89.5% in assay [1] (Well no.=8000, high concentration screen). Further, the remaining activity at 1.25 µM in assay [2] (Well no.=159, low concentration screen) was determined as 104%; in assay [2] (Well no.=8000, low concentration screen) it was 92.6%.
Take `COc1ccc(-c2ccc3cc(C(=O)O)ccc3c2)cc1[C@]12C[C@H]3C[C@H](C[C@H](C3)C1)C2` [Adapalene]: in assay [1] (Well no.=1939, high concentration screen), the remaining activity at 3.75 µM stood at 103%. Moreover, the remaining activity at 1.25 µM in assay [2] (Well no.=1939, low concentration screen) came to 99.2%.
As for `O=C(OC12CC3CC(CC(C3)C1)C2)c1ccc(NCc2cc(O)ccc2O)cc1` [Adaphostin], the remaining activity at 3.75 µM in assay [1] (Well no.=5772, high concentration screen) was found to be 109%. In addition, the remaining activity at 1.25 µM in assay [2] (Well no.=5772, low concentration screen) was found to be 105%.
As to `O=C(O)/C=C/c1ccc(-c2ccc(O)c(C34CC5CC(CC(C5)C3)C4)c2)cc1` [Adarotene], the remaining activity at 3.75 µM in assay [1] (Well no.=6342, high concentration screen) was 99%. Moreover, in assay [2] (Well no.=6342, low concentration screen), the remaining activity at 1.25 µM amounted to 101%.
Consider `Nc1ncnc2nc[nH]c12` [Adenine sulfate], for which, in assay [1] (Well no.=5006, high concentration screen), the remaining activity at 3.75 µM was found to be 85.9%. Besides, in assay [2] (Well no.=5006, low concentration screen), the remaining activity at 1.25 µM stood at 97.9%.
As for `Nc1[nH]cnc2ncnc1-2` [Adenine], the remaining activity at 3.75 µM in assay [1] (Well no.=5004, high concentration screen) was 107%; in assay [1] (Well no.=7253, high concentration screen), 98.1%. Further, the remaining activity at 1.25 µM stood at 108% in assay [2] (Well no.=5004, low concentration screen) and 101% in assay [2] (Well no.=7253, low concentration screen).
`Nc1ncnc2c1ncn2[C@@H]1O[C@H](COP(=O)(O)OP(=O)(O)O)[C@@H](O)[C@H]1O` [Adenosine 5'-diphosphate]: the remaining activity at 3.75 µM in assay [1] (Well no.=7363, high concentration screen) was 105%; in assay [1] (Well no.=7868, high concentration screen), 104%. In addition, the remaining activity at 1.25 µM in assay [2] (Well no.=7363, low concentration screen) was found to be 104%; in assay [2] (Well no.=7868, low concentration screen), 102%.
For `Nc1ncnc2c1ncn2[C@@H]1O[C@H](COP(=O)(O)O)[C@@H](O)[C@H]1O` [Adenosine 5'-monophosphate monohydrate], in assay [1] (Well no.=7902, high concentration screen), the remaining activity at 3.75 µM turned out to be 101%. The remaining activity at 1.25 µM in assay [2] (Well no.=7902, low concentration screen) came to 96.3%; in assay [2] (Well no.=8121, low concentration screen), 106%.
Take `Nc1ncnc2nc(-c3ccc(N4CCOCC4)nc3)cc(-c3cccc(Br)c3)c12` [Adenosine Kinase Inhibitor]: the remaining activity at 3.75 µM in assay [1] (Well no.=2694, high concentration screen) was 103%. Also, the remaining activity at 1.25 µM in assay [2] (Well no.=2694, low concentration screen) is 102%.
`Nc1ncnc2c1ncn2[C@@H]1O[C@H](COP(=O)(O)O)[C@@H](O)[C@H]1O` [Adenosine monophosphate]: the remaining activity at 3.75 µM is 102% in assay [1] (Well no.=7109, high concentration screen) and 104% in assay [1] (Well no.=7816, high concentration screen). Besides, the remaining activity at 1.25 µM came out at 103% in assay [2] (Well no.=7109, low concentration screen) and 107% in assay [2] (Well no.=7816, low concentration screen).
In the case of `Nc1ncnc2c1ncn2[C@@H]1O[C@H](CO)[C@@H](O)[C@H]1O` [Adenosine], the remaining activity at 3.75 µM in assay [1] (Well no.=200, high concentration screen) was 95.6%; in assay [1] (Well no.=6301, high concentration screen), 102%; in assay [1] (Well no.=8048, high concentration screen), 88.7%. Besides, the remaining activity at 1.25 µM in assay [2] (Well no.=200, low concentration screen) turned out to be 94%; in assay [2] (Well no.=6301, low concentration screen), 105%; in assay [2] (Well no.=8048, low concentration screen), 87.9%.
As for `CCN(CC)CCOC(=O)C(c1ccccc1)c1ccccc1` [Adiphenine HCl], the remaining activity at 3.75 µM in assay [1] (Well no.=5060, high concentration screen) was found to be 105%. Also, in assay [2] (Well no.=5060, low concentration screen), the remaining activity at 1.25 µM was 105%.
`O=C(O)CCCCC(=O)O` [Adipic acid]: the remaining activity at 3.75 µM in assay [1] (Well no.=6869, high concentration screen) is 98.1%. In addition, the remaining activity at 1.25 µM in assay [2] (Well no.=6869, low concentration screen) amounted to 102%.
In the case of `O=C(COc1ccc(C(=O)c2ccccc2)cc1)NC1CCN(Cc2ccccc2)CC1` [AdipoRon], the remaining activity at 3.75 µM in assay [1] (Well no.=7239, high concentration screen) came out at 96.7%. Also, in assay [2] (Well no.=7239, low concentration screen), the remaining activity at 1.25 µM worked out at 100%.
As to `Cc1cc(O[C@@H](CCC(F)(F)F)c2ccc(C(=O)NCCC(=O)O)cc2)cc(C)c1-c1ccc(C(C)(C)C)cc1` [Adomeglivant], the remaining activity at 3.75 µM in assay [1] (Well no.=7043, high concentration screen) was 98.4%. For the same compound, the remaining activity at 1.25 µM in assay [2] (Well no.=7043, low concentration screen) came to 99.3%.
Take `Fc1ccc(-c2cncc(CN3CCN(c4cccc5c4OCCO5)CC3)c2)cc1` [Adoprazine]: in assay [1] (Well no.=8443, high concentration screen), the remaining activity at 3.75 µM was 98.5%. Also, the remaining activity at 1.25 µM in assay [2] (Well no.=8443, low concentration screen) turned out to be 100%.
In the case of `O=C(C[S+]([O-])C(c1ccccc1)c1ccccc1)NO` (stereo not shown) [Adrafinil], the remaining activity at 3.75 µM in assay [1] (Well no.=6233, high concentration screen) stood at 94.6%. Moreover, the remaining activity at 1.25 µM in assay [2] (Well no.=6233, low concentration screen) is 102%.
Take `CNCC(=O)c1ccc(O)c(O)c1` [Adrenalone (hydrochloride)]: the remaining activity at 3.75 µM in assay [1] (Well no.=7433, high concentration screen) was determined as 103%. For the same compound, the remaining activity at 1.25 µM in assay [2] (Well no.=7433, low concentration screen) stood at 103%.
For `CNCC(=O)c1ccc(O)c(O)c1` [Adrenalone HCl], the remaining activity at 3.75 µM in assay [1] (Well no.=5034, high concentration screen) came to 94.4%. For the same compound, the remaining activity at 1.25 µM in assay [2] (Well no.=5034, low concentration screen) is 94.7%.

The record behind these values is PMC8286840, “Identifying SARS-CoV-2 antiviral compounds by screening for small molecule inhibitors of Nsp3 papain-like protease” (Biochemical Journal, 2021).
